# Laboratory results published in PubChem BioAssay (NCI).
#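 Abbreviation: GI50, concentration required for 50% inhibition of growth. The concentration for full growth arrest is given as TGI.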
# Columns and labels:
# Assay in all cases: NCI tumour cell line growth inhibition, 384-well format
# UO-31 renal = system: UO-31 renal
# SK-MEL-28 melanoma = system: SK-MEL-28 melanoma
# HOP-62 NSCLC = system: HOP-62 NSCLC
# KM12 colon = system: KM12 colon
# ACHN renal = system: ACHN renal
# NCI-H23 lung = system: NCI-H23 lung
# A549 NSCLC = system: A549 NSCLC
# HOP-92 NSCLC = system: HOP-92 NSCLC
# NCI-H226 lung = system: NCI-H226 lung
# MDA-MB-231 breast = system: MDA-MB-231 breast
# RXF 393 renal = system: RXF 393 renal
# LOX IMVI melanoma = system: LOX IMVI melanoma
# K-562 leukemia = system: K-562 leukemia
# SNB-19 CNS = system: SNB-19 CNS
# NCI-H322M lung = system: NCI-H322M lung
# MDA-MB-435 melanoma = system: MDA-MB-435 melanoma
# HCT-15 colon = system: HCT-15 colon
# PC-3 prostate = system: PC-3 prostate
# SN12C renal = system: SN12C renal
# SF-539 CNS = system: SF-539 CNS
# MALME-3M melanoma = system: MALME-3M melanoma
# HT29 colon = system: HT29 colon
# 786-0 renal = system: 786-0 renal
# OVCAR-5 ovarian = system: OVCAR-5 ovarian
# SNB-75 CNS = system: SNB-75 CNS
# SF-268 CNS = system: SF-268 CNS
# OVCAR-3 ovarian = system: OVCAR-3 ovarian
# RPMI-8226 leukemia = system: RPMI-8226 leukemia
# HL-60(TB) leukemia = system: HL-60(TB) leukemia
# SW-620 colon = system: SW-620 colon
# T-47D breast = system: T-47D breast
# CAKI-1 renal = system: CAKI-1 renal
# HCC-2998 colon = system: HCC-2998 colon
# SF-295 CNS = system: SF-295 CNS
# SK-OV-3 ovarian = system: SK-OV-3 ovarian
# NCI/ADR-RES ovarian = system: NCI/ADR-RES ovarian
# A498 renal = system: A498 renal
# MOLT-4 leukemia = system: MOLT-4 leukemia
# NCI-H460 NSCLC = system: NCI-H460 NSCLC
# SR leukemia = system: SR leukemia
# MCF7 breast = system: MCF7 breast
# SK-MEL-5 melanoma = system: SK-MEL-5 melanoma
# UACC-257 melanoma = system: UACC-257 melanoma
# HS 578T breast = system: HS 578T breast
# COLO 205 colon = system: COLO 205 colon
# OVCAR-8 ovarian = system: OVCAR-8 ovarian
# UACC-62 melanoma = system: UACC-62 melanoma
# CCRF-CEM leukemia = system: CCRF-CEM leukemia
# TK-10 renal = system: TK-10 renal
# IGROV1 ovarian = system: IGROV1 ovarian
# MDA-MB-468 breast = system: MDA-MB-468 breast
# BT-549 breast = system: BT-549 breast
# DU-145 prostate = system: DU-145 prostate
# M14 melanoma = system: M14 melanoma
# NCI-H522 lung = system: NCI-H522 lung
# OVCAR-4 ovarian = system: OVCAR-4 ovarian
# EKVX NSCLC = system: EKVX NSCLC
structure (smiles),measurement,setting,value
CCOCCOC[C@H]1CCCN(c2ccnc3sc(C(N)=O)c(N)c23)C1,GI50,UO-31 renal,> 100 µM
same,TGI,UO-31 renal,> 100 µM
same,GI50,SK-MEL-28 melanoma,> 100 µM
same,TGI,SK-MEL-28 melanoma,> 100 µM
same,GI50,HOP-62 NSCLC,18.5 µM
same,TGI,HOP-62 NSCLC,> 100 µM
same,GI50,KM12 colon,46.7 µM
same,TGI,KM12 colon,> 100 µM
same,GI50,ACHN renal,44.9 µM
same,TGI,ACHN renal,> 100 µM
same,GI50,NCI-H23 lung,7.19 µM
same,TGI,NCI-H23 lung,> 100 µM
same,GI50,A549 NSCLC,> 100 µM
same,TGI,A549 NSCLC,> 100 µM
same,GI50,HOP-92 NSCLC,> 100 µM
same,TGI,HOP-92 NSCLC,> 100 µM
same,GI50,NCI-H226 lung,90.9 µM
same,TGI,NCI-H226 lung,> 100 µM
same,GI50,MDA-MB-231 breast,82.3 µM
same,TGI,MDA-MB-231 breast,> 100 µM
same,GI50,RXF 393 renal,12.9 µM
same,TGI,RXF 393 renal,> 100 µM
same,GI50,LOX IMVI melanoma,16.9 µM
same,TGI,LOX IMVI melanoma,> 100 µM
same,GI50,K-562 leukemia,4.6 µM
same,TGI,K-562 leukemia,> 100 µM
same,GI50,SNB-19 CNS,> 100 µM
same,TGI,SNB-19 CNS,> 100 µM
same,GI50,NCI-H322M lung,13.4 µM
same,TGI,NCI-H322M lung,> 100 µM
same,GI50,MDA-MB-435 melanoma,> 100 µM
same,TGI,MDA-MB-435 melanoma,> 100 µM
same,GI50,HCT-15 colon,> 100 µM
same,TGI,HCT-15 colon,> 100 µM
same,GI50,PC-3 prostate,55.1 µM
same,TGI,PC-3 prostate,> 100 µM
same,GI50,SN12C renal,> 100 µM
same,TGI,SN12C renal,> 100 µM
same,GI50,SF-539 CNS,> 100 µM
same,TGI,SF-539 CNS,> 100 µM
same,GI50,MALME-3M melanoma,> 100 µM
same,TGI,MALME-3M melanoma,> 100 µM
same,GI50,HT29 colon,> 100 µM
same,TGI,HT29 colon,> 100 µM
same,GI50,786-0 renal,43.9 µM
same,TGI,786-0 renal,> 100 µM
same,GI50,OVCAR-5 ovarian,> 100 µM
same,TGI,OVCAR-5 ovarian,> 100 µM
same,GI50,SNB-75 CNS,> 100 µM
same,TGI,SNB-75 CNS,> 100 µM
same,GI50,SF-268 CNS,> 100 µM
same,TGI,SF-268 CNS,> 100 µM
same,GI50,OVCAR-3 ovarian,23.8 µM
same,TGI,OVCAR-3 ovarian,> 100 µM
same,GI50,RPMI-8226 leukemia,0.499 µM
same,TGI,RPMI-8226 leukemia,14.4 µM
same,GI50,HL-60(TB) leukemia,13.5 µM
same,TGI,HL-60(TB) leukemia,63.8 µM
same,GI50,SW-620 colon,> 100 µM
same,TGI,SW-620 colon,> 100 µM
same,GI50,T-47D breast,2.23 µM
same,TGI,T-47D breast,67.4 µM
same,GI50,CAKI-1 renal,> 100 µM
same,TGI,CAKI-1 renal,> 100 µM
same,GI50,HCC-2998 colon,> 100 µM
same,TGI,HCC-2998 colon,> 100 µM
same,GI50,SF-295 CNS,59.3 µM
same,TGI,SF-295 CNS,> 100 µM
same,GI50,SK-OV-3 ovarian,17.6 µM
same,TGI,SK-OV-3 ovarian,> 100 µM
same,GI50,NCI/ADR-RES ovarian,3.53 µM
same,TGI,NCI/ADR-RES ovarian,27.6 µM
same,GI50,A498 renal,13.9 µM
same,TGI,A498 renal,> 100 µM
same,GI50,MOLT-4 leukemia,3.13 µM
same,TGI,MOLT-4 leukemia,23.1 µM
same,GI50,NCI-H460 NSCLC,11.4 µM
same,TGI,NCI-H460 NSCLC,> 100 µM
same,GI50,SR leukemia,1.07 µM
same,TGI,SR leukemia,3.5 µM
same,GI50,MCF7 breast,23 µM
same,TGI,MCF7 breast,> 100 µM
same,GI50,SK-MEL-5 melanoma,2.56 µM
same,TGI,SK-MEL-5 melanoma,18.1 µM
same,GI50,UACC-257 melanoma,61.1 µM
same,TGI,UACC-257 melanoma,> 100 µM
same,GI50,HS 578T breast,> 100 µM
same,TGI,HS 578T breast,> 100 µM
same,GI50,COLO 205 colon,61.6 µM
same,TGI,COLO 205 colon,> 100 µM
same,GI50,OVCAR-8 ovarian,15.2 µM
same,TGI,OVCAR-8 ovarian,> 100 µM
same,GI50,UACC-62 melanoma,35.6 µM
same,TGI,UACC-62 melanoma,> 100 µM
same,GI50,CCRF-CEM leukemia,1.43 µM
same,TGI,CCRF-CEM leukemia,11.2 µM
same,GI50,TK-10 renal,> 100 µM
same,TGI,TK-10 renal,> 100 µM
same,GI50,IGROV1 ovarian,29.6 µM
same,TGI,IGROV1 ovarian,> 100 µM
same,GI50,MDA-MB-468 breast,1.34 µM
same,TGI,MDA-MB-468 breast,7.04 µM
same,GI50,BT-549 breast,79.1 µM
same,TGI,BT-549 breast,> 100 µM
same,GI50,DU-145 prostate,> 100 µM
same,TGI,DU-145 prostate,> 100 µM
same,GI50,M14 melanoma,> 100 µM
same,TGI,M14 melanoma,> 100 µM
same,GI50,NCI-H522 lung,5.77 µM
same,TGI,NCI-H522 lung,> 100 µM
same,GI50,OVCAR-4 ovarian,34.1 µM
same,TGI,OVCAR-4 ovarian,> 100 µM
same,GI50,EKVX NSCLC,35.1 µM
same,TGI,EKVX NSCLC,> 100 µM
